Laboratory results: article PMC5015106 (Scientific Reports, 2016)
Values after ≈ are worked out from the molar mass of the structure shown. Where two headings read alike, the source gives them in different places. Numbered stars: 1 amine (or outer) side, 2 acyl side, 3 side chain; on linkers, the order of the positions; unused ones are H or OH. Bridge positions count the residues as written; N and C are the ends. Square brackets hold non-standard residues; d marks the D form. Peptide text beside a SMILES is read from it. ξ: configuration not given here. X1 = O=C([C@H](CCc1ccc(O)c(Cl)c1)N[*:1])[*:2]; NMehTyr = CN[C@@H](CCc1ccc(O)cc1)C(=O)O; Nle(6-Ph) = N[C@@H](CCCCc1ccccc1)C(=O)O; d(aIle) = CC[C@H](C)[C@@H](N)C(=O)O; hTyr = N[C@@H](CCc1ccc(O)cc1)C(=O)O; hhPhe = N[C@@H](CCCc1ccccc1)C(=O)O; aIle = CC[C@@H](C)[C@H](N)C(=O)O; hPhe = N[C@@H](CCc1ccccc1)C(=O)O; Ile(3ξ) = CCC(C)[C@H](N)C(=O)O; NMeN = CN[C@@H](CC(N)=O)C(=O)O; NMeS = CN[C@@H](CO)C(=O)O; NMeA = CN[C@@H](C)C(=O)O; CO = O=C([*:1])[*:2]; Sar = CNCC(=O)O

Experiments:
[1] = target: T1, TAFIa (Homo sapiens, UniProt Q96IY4); test: biochemical
T1 construct: purchased American Diagnostica Pr; No. 874
T1 sequence (Q96IY4 115-423): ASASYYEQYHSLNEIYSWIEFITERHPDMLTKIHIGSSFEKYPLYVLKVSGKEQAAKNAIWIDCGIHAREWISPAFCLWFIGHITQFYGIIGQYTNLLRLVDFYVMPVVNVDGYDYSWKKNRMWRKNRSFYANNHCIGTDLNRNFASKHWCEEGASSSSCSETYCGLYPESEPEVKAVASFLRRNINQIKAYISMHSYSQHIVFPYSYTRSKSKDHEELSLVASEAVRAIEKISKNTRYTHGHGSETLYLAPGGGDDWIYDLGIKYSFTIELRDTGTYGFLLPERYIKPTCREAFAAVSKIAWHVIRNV

[2] = target: carboxypeptidase A; conditions: cited from earlier work; for inhibitory concentrations carboxypeptidase A: in words
[3] = enzymatic inhibition assay, duplicate determination, read-out: IC50 in nM against TAFIa

Row | Compound | IC50 [1, 3] | further results
1 | CCC(C)[C@@H]1NC(=O)[C@H](NC(=O)N[C@@H](CCCCN)C(=O)O)CCCCNC(=O)[C@H](Cc2ccccc2)NC(=O)[C@H](CC(N)=O)N(C)C(=O)[C@H](CCCc2ccccc2)NC1=O (some centres unmarked) [Compound 4, Anabaenopeptin SA4] ({Lys-CO}-[dK][Ile(3ξ)][hhPhe][NMeN]F; lactam 1-C) |  | IC50 [1]: 3.4 nM
2 | CC[C@@H](C)[C@H](NC(=O)N[C@@H]1CCCCNC(=O)[C@H](Cc2ccccc2)NC(=O)[C@H](CC(N)=O)N(C)C(=O)[C@H](CCCCc2ccccc2)NC(=O)[C@@H]([C@@H](C)CC)NC1=O)C(=O)O [Compound 8, Anabaenopeptin SA8] ({aIle-CO}-[dK][d(aIle)][Nle(6-Ph)][NMeN]F; lactam 1-C) | 4800 nM | 
3 | CC[C@@H](C)C1NC(=O)[C@H](NC(=O)N[C@@H](Cc2ccccc2)C(=O)O)CCCCNC(=O)[C@H](CCc2ccccc2)NC(=O)CN(C)C(=O)[C@H](CCc2ccc(O)c(Cl)c2)NC1=O (some centres unmarked) [Compound 9, Anabaenopeptin SA9] | 31000 nM | 
4 | CC(C)[C@H]1NC(=O)[C@H](NC(=O)N[C@@H](Cc2ccccc2)C(=O)O)CCCCNC(=O)[C@H](CCc2ccc(O)c(Cl)c2)NC(=O)CN(C)C(=O)[C@H](CCc2ccc(O)cc2)NC1=O [Compound 10, Anabaenopeptin SA10] ({Phe-CO}-[dK][dV][hTyr][Sar][X1]; lactam 1-C) | 7000 nM | 
5 | CC[C@@H](C)C1NC(=O)[C@H](NC(=O)N[C@@H](Cc2ccccc2)C(=O)O)CCCCNC(=O)[C@H](CCc2ccc(O)c(Cl)c2)NC(=O)CN(C)C(=O)[C@H](CCc2ccc(O)cc2)NC1=O (some centres unmarked) [Compound 11, Anabaenopeptin SA11] | 15000 nM | 
6 | CC(C)[C@@H]1NC(=O)[C@H](NC(=O)N[C@@H](Cc2ccc(O)cc2)C(=O)O)CCCCNC(=O)[C@H](Cc2ccccc2)NC(=O)[C@H](C)N(C)C(=O)[C@H](CCc2ccc(O)cc2)NC1=O [Compound 13, Anabaenopeptin A] ({Tyr-CO}-[dK]V[hTyr][NMeA]F; lactam 1-C) | 440 nM | 
7 | CC[C@H](C)[C@@H]1NC(=O)[C@H](CCc2ccc(O)cc2)N(C)C(=O)[C@H](CCc2ccc(O)cc2)NC(=O)[C@H](C(C)C)NC(=O)[C@H](NC(=O)N[C@@H](Cc2ccc(O)cc2)C(=O)O)CCCCNC1=O [Compound 15, Anabaenopeptine 915] ({Tyr-CO}-[dK]V[hTyr][NMehTyr]I; lactam 1-C) |  | IC50 [1]: 530 nM
8 | CC[C@H](C)[C@@H]1NC(=O)[C@H](CCc2ccc(O)cc2)N(C)C(=O)[C@H](CCc2ccc(O)cc2)NC(=O)[C@H](C(C)C)NC(=O)[C@H](NC(=O)N[C@@H](CCCNC(=N)N)C(=O)O)CCCCNC1=O [Compound 16, Anabaenopeptin 908] ({Arg-CO}-[dK]V[hTyr][NMehTyr]I; lactam 1-C) |  | IC50 [1]: 1.8 nM
9 | CC[C@H](C)[C@H]1NC(=O)[C@H](NC(=O)N[C@@H](CCCCN)C(=O)O)CCCCNC(=O)[C@H](Cc2ccccc2)NC(=O)[C@H](C)N(C)C(=O)[C@H](CCc2ccc(O)cc2)NC1=O [Compound 17, Anabaenopeptin SA3] ({Lys-CO}-[dK][d(aIle)][hTyr][NMeA]F; lactam 1-C) | 2.1 nM | 
10 | CC[C@@H](C)[C@H](NC(=O)N[C@@H]1CCCCNC(=O)[C@H](Cc2ccccc2)NC(=O)[C@H](CC(N)=O)N(C)C(=O)[C@H](CCc2ccccc2)NC(=O)[C@H]([C@H](C)CC)NC1=O)C(=O)O [Compound 18, Anabaenopeptin SA6] ({aIle-CO}-[dK][aIle][hPhe][NMeN]F; lactam 1-C) | 51000 nM | 
11 | CC(C)[C@H]1NC(=O)[C@H](NC(=O)N[C@@H](CCCN=C(N)N)C(=O)O)CCCCNC(=O)[C@H](Cc2ccccc2)NC(=O)[C@H](CO)N(C)C(=O)[C@H](CCc2ccc(O)cc2)NC1=O [Compound 19, Anabaenopeptin SA2] ({Arg-CO}-[dK][dV][hTyr][NMeS]F; lactam 1-C) | 16 nM | 
12 | CC(C)[C@H]1NC(=O)[C@H](NC(=O)N[C@@H](Cc2ccc(O)cc2)C(=O)O)CCCCNC(=O)[C@H](Cc2ccccc2)NC(=O)[C@H](CO)N(C)C(=O)[C@H](CCc2ccc(O)cc2)NC1=O [Compound 20, Anabaenopeptin SA13] ({Tyr-CO}-[dK][dV][hTyr][NMeS]F; lactam 1-C) | 2500 nM | 
13 | CC[C@H](C)[C@@H]1NC(=O)[C@H](NC(=O)N[C@@H](Cc2ccc(O)cc2)C(=O)O)CCCCNC(=O)[C@H]([C@@H](C)CC)NC(=O)[C@H](CCc2ccc(O)cc2)N(C)C(=O)[C@H](CCc2ccc(O)cc2)NC1=O [anabaenopeptin G] ({Tyr-CO}-[dK]I[hTyr][NMehTyr]I; lactam 1-C) |  | inhibitory concentrations carboxypeptidase A [2]: nanomolar
14 | CC[C@H](C)[C@@H]1NC(=O)[C@H](NC(=O)N[C@@H](CCCNC(=N)N)C(=O)O)CCCCNC(=O)[C@H]([C@@H](C)CC)NC(=O)[C@H](CCc2ccc(O)cc2)N(C)C(=O)[C@H](CCc2ccc(O)cc2)NC1=O [anabaenopeptin H] ({Arg-CO}-[dK]I[hTyr][NMehTyr]I; lactam 1-C) |  | IC50 carboxypeptidase A [2]: 3.4 µg/mL (≈ 3.68 µM)
15 | CC[C@H](C)[C@H](NC(=O)N[C@@H]1CCCCNC(=O)[C@H](CC(C)C)NC(=O)[C@H](C)N(C)C(=O)[C@H](CCc2ccc(O)cc2)NC(=O)[C@H](C(C)C)NC1=O)C(=O)O [anabaenopeptin I] ({Ile-CO}-[dK]V[hTyr][NMeA]L; lactam 1-C) |  | inhibitory concentrations carboxypeptidase A [2]: nanomolar
16 | CC[C@H](C)[C@H](NC(=O)N[C@@H]1CCCCNC(=O)[C@H](Cc2ccccc2)NC(=O)[C@H](C)N(C)C(=O)[C@H](CCc2ccc(O)cc2)NC(=O)[C@H](C(C)C)NC1=O)C(=O)O [anabaenopeptin J] ({Ile-CO}-[dK]V[hTyr][NMeA]F; lactam 1-C) |  | inhibitory concentrations carboxypeptidase A [2]: nanomolar
17 | Anabaenopeptin SA1 [Compound 5] | 2.2 nM | 
18 | Anabaenopeptin SA5 [Compound 6] | 790 nM | 
19 | Anabaenopeptin SA7 [Compound 7] | 13000 nM | 
20 | Anabaenopeptin SA12 [Compound 12] | 4300 nM | 
